{"source": "the OPERA property sets (Mansouri et al. 2018)", "data": [{"smiles": "C=CCN1CCCC1CNC(=O)c1cc2nn[nH]c2cc1OC", "note": "(configuration not stated)", "values": [{"measurement": "logP", "value": 1.79}]}, {"smiles": "C=CCN1CCCC1CNC(=O)c1cc(S(N)(=O)=O)cc(OC)c1OC", "note": "(configuration not stated)", "values": [{"measurement": "logP", "value": 1.47}]}, {"smiles": "CCN1CCCC1CNC(=O)c1cc(S(=O)(=O)CC)ccc1OC", "note": "(configuration not stated)", "values": [{"measurement": "logP", "value": 1.06}]}, {"smiles": "CC(C)(C)c1cc(C(O)CCC2CCNCC2)c2ccccc2n1", "note": "(configuration not stated)", "values": [{"measurement": "logP", "value": 3.63}]}, {"smiles": "O=C(NCC1CCCCN1)c1cc(OCC(F)(F)F)ccc1OCC(F)(F)F", "note": "(configuration not stated)", "values": [{"measurement": "logP", "value": 3.78}]}, {"smiles": "CC(C)NCCCC1(C(N)=O)c2ccccc2-c2ccccc21", "values": [{"measurement": "logP", "value": 3.11}]}, {"smiles": "CN1CCN(CCCN2c3ccccc3Sc3ccccc32)CC1", "values": [{"measurement": "logP", "value": 4}]}, {"smiles": "CC(C)NCC(O)COc1cccc2c1N(C(=O)c1cccnc1)CCC2", "note": "(configuration not stated)", "values": [{"measurement": "logP", "value": 1.63}]}, {"smiles": "CC(=O)Oc1c(C)cc(OCC(O)CNC(C)C)c(C)c1C", "note": "(configuration not stated)", "values": [{"measurement": "logP", "value": 2.66}]}, {"smiles": "CNC(=O)Nc1c(OCCN2CCCC2)c(OC)c2occc2c1OC", "values": [{"measurement": "logP", "value": 1.38}]}, {"smiles": "CCN1CCCC1CNC(=O)c1cc(S(=O)(=O)CC)c(N)cc1OC", "note": "(configuration not stated)", "values": [{"measurement": "logP", "value": 1.1}]}, {"smiles": "CC(C)(C)NCC(O)COc1ccccc1C#N", "note": "(configuration not stated)", "values": [{"measurement": "logP", "value": 1.6}]}]}
